Target: T1, human 5HT1A receptor (Homo sapiens, UniProt P08908)
T1 construct: expressed in transfected cells
T1 sequence (P08908 1-422): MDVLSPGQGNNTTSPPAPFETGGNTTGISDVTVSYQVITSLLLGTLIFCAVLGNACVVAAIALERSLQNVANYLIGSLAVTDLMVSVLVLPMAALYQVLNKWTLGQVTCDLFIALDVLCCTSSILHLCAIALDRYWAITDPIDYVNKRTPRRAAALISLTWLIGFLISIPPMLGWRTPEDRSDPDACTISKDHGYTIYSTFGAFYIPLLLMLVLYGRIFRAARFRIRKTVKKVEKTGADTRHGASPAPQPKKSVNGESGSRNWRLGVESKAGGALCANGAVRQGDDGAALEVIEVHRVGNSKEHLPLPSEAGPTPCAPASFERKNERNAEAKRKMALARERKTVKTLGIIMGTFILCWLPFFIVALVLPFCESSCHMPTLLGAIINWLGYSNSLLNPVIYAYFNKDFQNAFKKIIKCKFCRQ
Experiment: displacement of [^3 H] 8-OH-DPAT binding in CHO cells stably transfected with human 5HT1A receptor
Details: final ligand concentration 1.5 nM, 30 minute incubation at room temperature
Procedure: The compounds of this invention are 5-HT1A agonists. Affinity for the serotonin 5-HT1A receptor was established in a standard pharmacological test procedure which measures the compound's ability to displace [^3 H] 8-OH-DPAT binding in CHO cells stably transfected with human 5HT1A receptor. Stably transfected CHO cells are grown in DMEM containing 10% heat inactivated FBS and non-essential amino acids. Cells are scraped off the plate, transferred to centrifuge tubes, and washed twice by centrifugation (2000 rpm for 10 min., 4° C.) in buffer (50 mM Tris pH 7.5). The resulting pellets are aliquoted and placed at -80° C. On the day of assay, the cells are thawed on ice and resuspended in buffer. The binding assay is performed in a 96 well microtiter plate in a total volume of 250 μL. Non-specific binding is determined in the presence of […], final ligand concentration is 1.5 nM. Following a 30 minute incubation at room temperature, the reaction is terminated by the addition of ice cold buffer and rapid filtration through a GF/B filter presoaked for 30 minutes in 0.5% PEI. Compounds are initially tested in a single point assay to determine percent inhibition at […], and Ki values are determined for the active compounds.

Ki: 4.4 nM
Compound: COc1ccccc1C1CCN(Cc2oc(C3CCCCC3)nc2Cc2ccccc2)CC1 [Example 9, 1-(4-Benzyl-2-cyclohexyl-oxazol-5-ylmethyl)-4-(2-methoxy-phenyl)-piperidine]

From patent publication US6057340A, “Oxazole derivatives as serotonin-1A receptor agonists” (American Home Products Corporation, priority 1999, dated 2000)
